Assay results from ChEMBL document CHEMBL1123817, “X-ray crystal structure of the opioid ligand naltrexonazine” (J Med Chem, 1987).

Molecular target: Opioid receptor (Rattus norvegicus, UniProt P33533+P34975+P33535)
Experiment: Inhibition of [3H]DAMPGO binding was determined using standard binding assay in rat brain homogenates against opioid receptor
Assay type: tissue-based

Compound | IC50 [pM]
Oc1ccc2c3c1O[C@H]1/C(=N/N=C4\CC[C@@]5(O)[C@H]6Cc7ccc(O)c8c7[C@@]5(CCN6CC5CC5)[C@H]4O8)CC[C@@]4(O)[C@@H](C2)N(CC2CC2)CC[C@]314 (stereo in doubt; syn) [NALTREXONAZINE] | 470
Oc1ccc2c3c1O[C@H]1/C(=N/N=C4\CC[C@@]5(O)[C@H]6Cc7ccc(O)c8c7[C@@]5(CCN6CC5CC5)[C@H]4O8)CC[C@@]4(O)[C@@H](C2)N(CC2CC2)CC[C@]314 (mixture of isomers) [NALTREXONAZINE] | 350
Oc1ccc2c3c1O[C@H]1/C(=N/N=C4\CC[C@@]5(O)[C@H]6Cc7ccc(O)c8c7[C@@]5(CCN6CC5CC5)[C@H]4O8)CC[C@@]4(O)[C@@H](C2)N(CC2CC2)CC[C@]314 (stereo in doubt; anti) [NALTREXONAZINE] | 450
